Data from paper PMC7327383, “The affinity and selectivity of α‐adrenoceptor antagonists, antidepressants, and antipsychotics for the human α1A, α1B, and α1D‐adrenoceptors” (Pharmacology Research & Perspectives, 2020).
Where two headings read alike, the source gives them in different places.

Assays:
[1] = target: T1, full-length human α1D-adrenoceptor (Homo sapiens, UniProt P25100); assay: [3H]prazosin whole-cell competition binding, CHO-α1D cells; settings: for Log KD α1D site 2: low-affinity component of two-component curve
T1 sequence (P25100 1-572): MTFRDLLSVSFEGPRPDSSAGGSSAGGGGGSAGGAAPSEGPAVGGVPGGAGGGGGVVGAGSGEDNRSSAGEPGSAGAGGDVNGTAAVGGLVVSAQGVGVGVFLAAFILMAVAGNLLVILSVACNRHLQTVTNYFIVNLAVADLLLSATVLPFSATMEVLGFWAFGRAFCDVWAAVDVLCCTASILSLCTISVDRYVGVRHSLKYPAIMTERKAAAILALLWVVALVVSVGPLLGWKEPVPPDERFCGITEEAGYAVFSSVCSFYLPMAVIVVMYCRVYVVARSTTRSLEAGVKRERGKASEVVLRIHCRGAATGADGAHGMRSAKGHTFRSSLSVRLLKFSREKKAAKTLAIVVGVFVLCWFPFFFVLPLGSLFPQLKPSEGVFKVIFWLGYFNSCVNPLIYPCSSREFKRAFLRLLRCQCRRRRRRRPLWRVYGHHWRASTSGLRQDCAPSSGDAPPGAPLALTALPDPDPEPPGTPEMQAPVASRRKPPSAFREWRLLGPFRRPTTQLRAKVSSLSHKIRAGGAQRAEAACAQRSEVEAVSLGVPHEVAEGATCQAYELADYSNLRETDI

human α1B-adrenoceptor = target: T2, human α1B-adrenoceptor (Homo sapiens, UniProt P35368); assay: [3H]prazosin whole-cell competition binding, CHO-α1B cells
T2 construct: CHO cells stably expressing either the full‐length human α1A, α1B, or α1D‐adrenoceptor
T2 sequence (P35368 1-520): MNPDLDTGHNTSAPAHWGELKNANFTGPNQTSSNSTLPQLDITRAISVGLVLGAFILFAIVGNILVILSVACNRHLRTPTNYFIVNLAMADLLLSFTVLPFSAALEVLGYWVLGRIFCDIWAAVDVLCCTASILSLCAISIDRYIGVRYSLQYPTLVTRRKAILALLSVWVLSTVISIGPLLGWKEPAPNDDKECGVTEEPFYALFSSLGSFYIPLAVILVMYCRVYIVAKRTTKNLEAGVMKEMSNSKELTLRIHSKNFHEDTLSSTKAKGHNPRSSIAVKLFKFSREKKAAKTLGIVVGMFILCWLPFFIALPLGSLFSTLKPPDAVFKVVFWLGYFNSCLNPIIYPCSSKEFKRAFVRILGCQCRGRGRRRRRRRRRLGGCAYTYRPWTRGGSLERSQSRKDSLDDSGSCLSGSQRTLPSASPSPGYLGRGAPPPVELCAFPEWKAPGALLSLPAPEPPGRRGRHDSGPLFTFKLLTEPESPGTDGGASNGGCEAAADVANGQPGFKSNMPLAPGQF

human α1A-adrenoceptor = target: T3, human α1A-adrenoceptor (Homo sapiens, UniProt P35348); assay: [3H]prazosin whole-cell competition binding, CHO-α1A cells; settings: single-component inhibition curve; given as log KD (negative); mean ± SE mean
T3 construct: CHO cells stably expressing either the full‐length human α1A, α1B, or α1D‐adrenoceptor
T3 sequence (P35348 1-466): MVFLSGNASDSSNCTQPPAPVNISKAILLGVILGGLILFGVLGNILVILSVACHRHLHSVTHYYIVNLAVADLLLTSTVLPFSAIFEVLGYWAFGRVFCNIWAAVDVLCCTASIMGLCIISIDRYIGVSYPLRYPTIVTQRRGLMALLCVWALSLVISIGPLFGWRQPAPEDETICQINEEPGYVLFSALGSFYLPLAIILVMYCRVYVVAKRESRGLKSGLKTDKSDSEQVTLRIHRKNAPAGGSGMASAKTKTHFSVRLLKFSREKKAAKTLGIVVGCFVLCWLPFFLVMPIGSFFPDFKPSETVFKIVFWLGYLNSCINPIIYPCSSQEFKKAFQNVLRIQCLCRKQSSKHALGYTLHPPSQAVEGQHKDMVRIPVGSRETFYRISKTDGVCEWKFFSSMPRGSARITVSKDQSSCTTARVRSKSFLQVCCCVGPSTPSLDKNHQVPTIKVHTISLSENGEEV

[2] = Log KD α1D, single-component inhibition curve, given as log KD (negative), mean ± SE mean
[3] = single-component inhibition curve, given as log KD (negative), mean ± SE mean, read-out: Log KD α1B (converted)
[4] = Log KD α1D site 1, high-affinity component of two-component curve, control, used for selectivity
[5] = percentage of inhibition through first component, control
[6] = two-component inhibition curve, proportion of site 1

Row | Structure (SMILES) | Kd [1, 2] [nM] | Kd (human α1B-adrenoceptor; [3]) [nM] | also measured
1 | O=c1n(CCCN2CCN(c3cccc(Cl)c3)CC2)nc2ccccn12 [Trazodone] | 417 | 275 | 
2 | O=C1[C@@H]2[C@H]3CC[C@H](C3)[C@@H]2C(=O)N1C[C@@H]1CCCC[C@H]1CN1CCN(c2nsc3ccccc23)CC1 [Lurasidone] |  | 67.6 | Kd [1, 4]: 6.46 nM; Log KD α1D site 2 ([1]; control): −5.92 ± 0.06; % site 1 α1D [1, 5]: 24.8 ± 3.1% site 1; % site 1 α1D [1, 6]: -8.19 ± 0.10 -5.92 ± 0.06 24.8 ± 3.1% site 1
3 | COc1cc2nc(N(C)CCCNC(=O)C3CCCO3)nc(N)c2cc1OC (centres unmarked) [Alfuzosin] | 21.9 | 27.5 | 
4 | COc1ccccc1N1CCN(CCN2C(=O)CC3(CCCC3)CC2=O)CC1 [BMY7378] |  | 589 | % site 1 α1D [1, 5]: 57.7 ± 2.6% site 1; % site 1 α1D [1, 6]: -8.60 ± 0.13 -5.93 ± 0.37 57.7 ± 2.6% site 1
5 | CNCCCN1c2ccccc2CCc2ccccc21 [Desipramine] | 3470 | 2690 | 
6 | COc1ccccc1N1CCN(CCn2c(=O)[nH]c3c([nH]c4ccccc43)c2=O)CC1 [3‐MPPI] |  |  | Log KD α1A (human α1A-adrenoceptor): −9.57 ± 0.06; Log KD α1B (human α1B-adrenoceptor; single-component inhibition curve, given as log KD (negative), mean ± SE mean): −8.59 ± 0.03
7 | COc1cc2nc(N3CCN(C(=O)COc4c(OC)cccc4C(C)C)CC3)nc(N)c2cc1OC [Rec15-2615] |  |  | Log KD α1D ([1]; log KD from 3H-prazosin whole cell binding, CHO cells, mean ± s.e.mean): -7.89 ± 0.07
8 | COc1cccc(OC)c1OCCNCC1COc2ccccc2O1 (centres unmarked) [WB4104] |  |  | Log KD α1A (human α1A-adrenoceptor): −9.03 ± 0.04
9 | COc1cc2nc(N3CCN(C(=O)C4CCCO4)CC3)nc(N)c2cc1OC (centres unmarked) [Terazosin] | 19.5 |  | 
10 | CC(C)C[C@H]1C(=O)N2CCC[C@H]2[C@]2(O)O[C@](NC(=O)[C@@H]3C=C4c5cccc6[nH]c(Br)c(c56)C[C@H]4N(C)C3)(C(C)C)C(=O)N12 [Bromocriptine] |  | 11 | Kd [1]: 49 nM
11 | CNCC[C@H](Oc1cccc2ccccc12)c1cccs1 [Duloxetine] |  |  | Kd [1]: 2630 nM; Kd (human α1B-adrenoceptor; read-out: Log KD α1B (apparent) (converted)): 19500 nM

Now from value to compound, other results behind:

Row | Kd [1, 2] [nM] | Kd (human α1B-adrenoceptor; [3]) [nM] | Structure (SMILES) | also measured
12 | 12600 |  | CNCCC(Oc1ccc(C(F)(F)F)cc1)c1ccccc1 (centres unmarked) [Fluoxetine] | 
13 | 12900 |  | CC(C)NCC(O)COc1cccc2ccccc12 (centres unmarked) [Propranolol] | Kd (human α1B-adrenoceptor; app: top concentration inhibited most but not all specific binding, curve extrapolated, read-out: Log KD α1B (apparent) (converted)): 105000 nM
14 | 537 | 661 | CN(C)CCC=C1c2ccccc2COc2ccccc21 [Doxepin] | 
15 | 13.5 |  | COc1ccccc1OCCNCC(O)COc1cccc2[nH]c3ccccc3c12 (centres unmarked) [Carvedilol] | 
16 |  | 14.5 | CN(C)CCCN1c2ccccc2Sc2ccc(Cl)cc21 [Chlorpromazine] | % site 1 α1D [1, 5]: 56.0 ± 5.0% site 1
17 | 295 | 132 | CN1CCN(CCCN2c3ccccc3Sc3ccc(Cl)cc32)CC1 [Prochlorperazine] | 
18 |  | 37.2 | OCCN1CCN(CCCN2c3ccccc3Sc3ccc(Cl)cc32)CC1 [Perphenazine] | Kd [1, 4]: 13.8 nM; Log KD α1D site 2 ([1]; control): −6.03 ± 0.19; % site 1 α1D [1, 5]: 53.3 ± 4.1% site 1; % site 1 α1D [1, 6]: -7.86 ± 0.10 -6.03 ± 0.19 53.3 ± 4.1% site 1
